Target: MAT2A (Homo sapiens (Human), UniProt P31153)
Assay: MAT2A Biochemical Assay
Settings: Biomol Green readout O.D.620; 1 uM start, 3-fold dilution, 10 doses; read-out: MAT2A enzymatic IC50
Procedure: Example A: MAT2A Biochemical Assay
Compounds described herein were tested as follows:
• (1). Prepared 1×Assay buffer. • (2). Preparation of compound concentration gradient: the compounds test condition were 1 uM start, 3-fold dilution, 10 doses, singlet or duplicate. 100× concentration compounds were prepared in 384-well plate. Then used Echo 550 to transfer 250 nl to a 384-reaction plate for later use. Added 250 nl of 100% DMSO to the negative and positive control wells. • (3). Prepared 1.67× final concentration enzyme solution with 1×Assay buffer. • (4). Added 15 μl of 1.67× Enzyme solution to the compound wells and positive control wells; added 15 μl of 1 Assay buffer to the negative control wells. • (5). Centrifuged at 1000 rpm for 30 seconds and incubate for 15 minutes. • (6). Prepared 2.5× final concentration Substrate mix solution with 1×Assay buffer. • (7). Added 10 μl of 2.5× final concentration Substrate mix solution to start the reaction. • (8). Centrifuged at 1000 rpm for 30 seconds and incubate for 150 minutes. • (9). Added 50 μl Biomol Green to stop the reaction, centrifuge at 1000 rpm for 30 seconds and incubate for 15 minutes. read O.D.620, process data.
• (1) Using GraphPad Prism 5. • (2) % Inh=(Max signal−Compound signal)/(Max signal−Min signal)*100. • (3) Max signal was obtained from the positive control wells. • (4) Min signal was obtained from the negative control wells.

MAT2A, sequence (P31153 whole entry, species assumed): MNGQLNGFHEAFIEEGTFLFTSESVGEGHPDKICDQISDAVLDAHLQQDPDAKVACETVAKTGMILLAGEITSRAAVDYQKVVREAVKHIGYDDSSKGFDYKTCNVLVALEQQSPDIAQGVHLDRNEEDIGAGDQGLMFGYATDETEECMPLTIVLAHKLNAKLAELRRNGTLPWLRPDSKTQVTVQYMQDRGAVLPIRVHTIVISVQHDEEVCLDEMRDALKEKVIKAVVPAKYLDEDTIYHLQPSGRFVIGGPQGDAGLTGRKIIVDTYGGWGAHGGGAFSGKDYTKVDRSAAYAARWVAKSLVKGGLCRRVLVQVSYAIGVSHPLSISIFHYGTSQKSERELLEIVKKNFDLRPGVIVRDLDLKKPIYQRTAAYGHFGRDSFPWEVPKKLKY

| IC50 [nM] | Structure (SMILES) |
| --- | --- |
| < 50 | C#CC1(Nc2nc(=O)n(-c3cccnc3C)c3cc(Cl)cc(OC)c23)CC1 [Example 27, 7-chloro-4-((1-ethynylcyclopropyl)amino)-5-methoxy-1-(2-methylpyridin-3-yl)quinazolin-2 (11H)-one] |
| < 50 | C#CC(C)Nc1nc(=O)n(-c2cccnc2)c2cc(C(F)(F)F)cc(OC)c12 (centres unmarked) [Example 35, 4-(but-3-yn-2-ylamino)-5-methoxy-1-(pyridin-3-yl)-7-(trifluoromethyl)quinazolin-2 (1H)-one] |
| < 50 | O=c1nc(NCC#CCN2CCOCC2)c2ccc(C(F)(F)F)cc2n1-c1cccnc1 [Example 14, 4-((4-morpholinobut-2-yn-1-yl)amino)-1-(pyridin-3-yl)-7-(trifluoromethyl)quinazolin-2 (1H)-one] |
| < 50 | C#CCNc1nc(=O)n(-c2cccnc2C)c2cc(C(F)(F)F)ccc12 [Example 33, 1-(2-methylpyridin-3-yl)-4-(prop-2-yn-1-ylamino)-7-(trifluoromethyl)quinazolin-2 (1H)-one] |
| < 50 | C#CCNc1nc(=O)n(-c2cnccn2)c2cc(Cl)cc(OC)c12 [Example 21, 7-chloro-5-methoxy-4-(prop-2-yn-1-ylamino)-1-(pyrazin-2-yl)quinazolin-2 (1H)-one] |
| < 50 | C#CC1(Nc2nc(=O)n(-c3cccnc3)c3cc(C(F)(F)F)cc(OC)c23)CC1 [Example 47, 4-((1-ethynylcyclopropyl)amino)-5-methoxy-1-(pyridin-3-yl)-7-(trifluoromethyl)quinazolin-2 (1B)-one] |
| < 50 | C#CCNc1nc(=O)n(-c2cccnc2)c2nc(C(F)(F)F)ccc12 [Example 57, 4-(prop-2-yn-1-ylamino)-1-(pyridin-3-yl)-7-(trifluoromethyl)pyrido[2,3-d]pyrimidin-2 (1H)-one] |
| < 50 | C=CCNc1nc(=O)n(-c2cccnc2)c2cc(Cl)ccc12 [Example 5, 4-(allylamino)-7-chloro-1-(pyridin-3-yl)quinazolin-2 (1H)-one] |
| < 50 | C#CCNc1nc(=O)n(-c2cccnc2C(C)C)c2cc(C(F)(F)F)ccc12 [Example 45, 1-(2-isopropylpyridin-3-yl)-4-(prop-2-yn-1-ylamino)-7-(trifluoromethyl)quinazolin-2 (1H)-one] |
| < 50 | C#CC1(Nc2nc(=O)n(-c3cccnc3C)c3cc(Cl)cc(F)c23)CC1 [Example 31, 7-chloro-4-((1-ethynylcyclopropyl)amino)-5-fluoro-1-(2-methylpyridin-3-yl)quinazolin-2 (11H)-one] |
| < 50 | C#CCCCNc1nc(=O)n(-c2cccnc2)c2cc(Cl)ccc12 [Example 6, 7-chloro-4-(pent-4-yn-1-ylamino)-1-(pyridin-3-yl)quinazolin-2 (1H)-one] |
| < 50 | C#CCNc1nc(=O)n(-c2c(C)ccnc2C)c2cc(C(F)(F)F)ccc12 [Example 52, 1-(2,4-dimethylpyridin-3-yl)-4-(prop-2-yn-1-ylamino)-7-(trifluoromethyl)quinazolin-2 (11H)-one] |
| < 50 | C#CCN(C)c1nc(=O)n(-c2cccnc2)c2cc(C(F)(F)F)ccc12 [Example 51] |
| < 50 | C#CCNc1nc(=O)n(-c2cccnc2)c2cc(Cl)cc(F)c12 [Example 29, 7-chloro-5-fluoro-4-(prop-2-yn-1-ylamino)-1-(pyridin-3-yl)quinazolin-2 (1H)-one] |
| < 50 | C#CCNc1nc(=O)n(-c2cccnc2)c2cc(Br)ccc12 [Example 18, 7-bromo-4-(prop-2-yn-1-ylamino)-1-(pyridin-3-yl)quinazolin-2 (1H)-one] |
| < 50 | C#CC(C)Nc1nc(=O)n(-c2cccnc2C)c2cc(C(F)(F)F)cc(OC)c12 (centres unmarked) [Example 37] |
| < 50 | C#CCNc1nc(=O)n(-c2cccnc2C)c2nc(C(F)(F)F)cc(OC)c12 [Example 42, 5-methoxy-1-(2-methylpyridin-3-yl)-4-(prop-2-yn-1-ylamino)-7-(trifluoromethyl)pyrido[2,3-d]pyrimidin-2 (1H)-one] |

Reference: patent US20250042890A1, “METHIONINE ADENOSYLTRANSFERASE 2a (MAT2A) INHIBITORS AND USES THEREOF” (Insilico Medicine IP Limited, priority 2021, published 2025)
